The values that follow come from the supplement of paper PMC10307832.

Each structure is given as a SMILES string.

For the first assay, the system named is LCLC-103H. Nature of the assay: relative viability (nuclei count vs DMSO), 5 days (fraction); higher = more cells survive. Conditions: first compound 6.325 µM. The gist of the method: (§1)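 Relative viability equals treated-well nuclei counts divided by vehicle-well nuclei counts. Counts came from 4× images of lung cancer cell lines grown in 1536-well plates for 5 days after pin-tool dosing on the day after seeding. Dosing used one drug alone or a fixed anchor-drug dose plus five library-drug doses (not always all listed) in √10 steps, and values are medians of duplicate plates.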
As for `COCC1(CO)C(=O)C2CCN1CC2` (configuration not stated) [PRIMA-1MET] + Cc1nc(Nc2ncc(C(=O)Nc3c(C)cccc3Cl)s2)cc(N2CCN(CCO)CC2)n1 [Dasatinib] (partner 0.075 µM), the relative viability came to 0.447.
Still for that read-out and setting: to `COCC1(CO)C(=O)C2CCN1CC2` (configuration not stated) [PRIMA-1MET] + O=C(c1cc(Cc2n[nH]c(=O)c3ccccc23)ccc1F)N1CCN(C(=O)C2CC2)CC1 [Olaparib] (partner 8 µM) belongs 0.8.

Still in this assay, the particulars now being: first compound 20 µM.
In the case of `COCC1(CO)C(=O)C2CCN1CC2` (configuration not stated) [PRIMA-1MET] + N=C(N)NC(=N)NCCc1ccccc1 [Phenformin] (partner 250 µM), the relative viability was found to be 0.362.
The same measure, in the same setting: for `COCC1(CO)C(=O)C2CCN1CC2` (configuration not stated) [PRIMA-1MET] + CC(=O)c1c(C)c2cnc(Nc3ccc(N4CCNCC4)cn3)nc2n(C2CCCC2)c1=O [Palbociclib] (partner 0.5 µM) the value was 0.425; for `COCC1(CO)C(=O)C2CCN1CC2` (configuration not stated) [PRIMA-1MET] + Cc1nc(Nc2ncc(C(=O)Nc3c(C)cccc3Cl)s2)cc(N2CCN(CCO)CC2)n1 [Dasatinib] (partner 0.075 µM), 0.342.
Regarding `COCC1(CO)C(=O)C2CCN1CC2` (configuration not stated) [PRIMA-1MET] + O=C(c1cc(Cc2n[nH]c(=O)c3ccccc23)ccc1F)N1CCN(C(=O)C2CC2)CC1 [Olaparib] (partner 8 µM), the relative viability turned out to be 0.703.

A further assay concerns LK-2. The assay is described as above. Conditions: first compound 0.2 µM. A digest of the protocol: as §1
As for `COCC1(CO)C(=O)C2CCN1CC2` (configuration not stated) [PRIMA-1MET] + N=C(N)NC(=N)NCCc1ccccc1 [Phenformin] (partner 250 µM), the relative viability is 0.45.
The same measure, in the same setting: for `COCC1(CO)C(=O)C2CCN1CC2` (configuration not stated) [PRIMA-1MET] + CC(=O)c1c(C)c2cnc(Nc3ccc(N4CCNCC4)cn3)nc2n(C2CCCC2)c1=O [Palbociclib] (partner 0.5 µM) the value was 0.814.
Consider `COCC1(CO)C(=O)C2CCN1CC2` (configuration not stated) [PRIMA-1MET] + Cc1nc(Nc2ncc(C(=O)Nc3c(C)cccc3Cl)s2)cc(N2CCN(CCO)CC2)n1 [Dasatinib] (partner 0.075 µM), for which the relative viability was 0.275.
With `COCC1(CO)C(=O)C2CCN1CC2` (configuration not stated) [PRIMA-1MET] + O=C(c1cc(Cc2n[nH]c(=O)c3ccccc23)ccc1F)N1CCN(C(=O)C2CC2)CC1 [Olaparib] (partner 8 µM), the relative viability was 0.823.

The same assay, now with this note: first compound 0.6325 µM.
In turn, `COCC1(CO)C(=O)C2CCN1CC2` (configuration not stated) [PRIMA-1MET] + N=C(N)NC(=N)NCCc1ccccc1 [Phenformin] (partner 250 µM) registered a relative viability of 0.41.
On the same count and under the same terms, for `COCC1(CO)C(=O)C2CCN1CC2` (configuration not stated) [PRIMA-1MET] + CC(=O)c1c(C)c2cnc(Nc3ccc(N4CCNCC4)cn3)nc2n(C2CCCC2)c1=O [Palbociclib] (partner 0.5 µM) the value was 0.705; for `COCC1(CO)C(=O)C2CCN1CC2` (configuration not stated) [PRIMA-1MET] + Cc1nc(Nc2ncc(C(=O)Nc3c(C)cccc3Cl)s2)cc(N2CCN(CCO)CC2)n1 [Dasatinib] (partner 0.075 µM), 0.223.
Same read-out and setting: to `COCC1(CO)C(=O)C2CCN1CC2` (configuration not stated) [PRIMA-1MET] + O=C(c1cc(Cc2n[nH]c(=O)c3ccccc23)ccc1F)N1CCN(C(=O)C2CC2)CC1 [Olaparib] (partner 8 µM) belongs 0.632.

Staying with this assay, now noted: first compound 2 µM.
In the case of `COCC1(CO)C(=O)C2CCN1CC2` (configuration not stated) [PRIMA-1MET] + N=C(N)NC(=N)NCCc1ccccc1 [Phenformin] (partner 250 µM), the relative viability was determined as 0.228.
Same read-out and setting: to `COCC1(CO)C(=O)C2CCN1CC2` (configuration not stated) [PRIMA-1MET] + CC(=O)c1c(C)c2cnc(Nc3ccc(N4CCNCC4)cn3)nc2n(C2CCCC2)c1=O [Palbociclib] (partner 0.5 µM) belongs 0.534; to `COCC1(CO)C(=O)C2CCN1CC2` (configuration not stated) [PRIMA-1MET] + Cc1nc(Nc2ncc(C(=O)Nc3c(C)cccc3Cl)s2)cc(N2CCN(CCO)CC2)n1 [Dasatinib] (partner 0.075 µM), 0.329; to `COCC1(CO)C(=O)C2CCN1CC2` (configuration not stated) [PRIMA-1MET] + O=C(c1cc(Cc2n[nH]c(=O)c3ccccc23)ccc1F)N1CCN(C(=O)C2CC2)CC1 [Olaparib] (partner 8 µM), 0.513.

Still in this assay, the particulars now being: first compound 6.325 µM.
`COCC1(CO)C(=O)C2CCN1CC2` (configuration not stated) [PRIMA-1MET] + N=C(N)NC(=N)NCCc1ccccc1 [Phenformin] (partner 250 µM) returned a relative viability of 0.14.
On the same count and under the same terms, for `COCC1(CO)C(=O)C2CCN1CC2` (configuration not stated) [PRIMA-1MET] + CC(=O)c1c(C)c2cnc(Nc3ccc(N4CCNCC4)cn3)nc2n(C2CCCC2)c1=O [Palbociclib] (partner 0.5 µM) the value was 0.211; for `COCC1(CO)C(=O)C2CCN1CC2` (configuration not stated) [PRIMA-1MET] + Cc1nc(Nc2ncc(C(=O)Nc3c(C)cccc3Cl)s2)cc(N2CCN(CCO)CC2)n1 [Dasatinib] (partner 0.075 µM), 0.164; for `COCC1(CO)C(=O)C2CCN1CC2` (configuration not stated) [PRIMA-1MET] + O=C(c1cc(Cc2n[nH]c(=O)c3ccccc23)ccc1F)N1CCN(C(=O)C2CC2)CC1 [Olaparib] (partner 8 µM), 0.423.

The same assay, now with this note: first compound 20 µM.
With `COCC1(CO)C(=O)C2CCN1CC2` (configuration not stated) [PRIMA-1MET] + N=C(N)NC(=N)NCCc1ccccc1 [Phenformin] (partner 250 µM), the relative viability turned out to be 0.124.
The same measure, in the same setting: for `COCC1(CO)C(=O)C2CCN1CC2` (configuration not stated) [PRIMA-1MET] + CC(=O)c1c(C)c2cnc(Nc3ccc(N4CCNCC4)cn3)nc2n(C2CCCC2)c1=O [Palbociclib] (partner 0.5 µM) the value was 0.0375; for `COCC1(CO)C(=O)C2CCN1CC2` (configuration not stated) [PRIMA-1MET] + Cc1nc(Nc2ncc(C(=O)Nc3c(C)cccc3Cl)s2)cc(N2CCN(CCO)CC2)n1 [Dasatinib] (partner 0.075 µM), 0.116.
Still for that read-out and setting: for `COCC1(CO)C(=O)C2CCN1CC2` (configuration not stated) [PRIMA-1MET] + O=C(c1cc(Cc2n[nH]c(=O)c3ccccc23)ccc1F)N1CCN(C(=O)C2CC2)CC1 [Olaparib] (partner 8 µM) the value was 0.0842.

In another assay the test system is LU99A. Described as above. Conditions: first compound 0.2 µM. A digest of the protocol: as §1
`COCC1(CO)C(=O)C2CCN1CC2` (configuration not stated) [PRIMA-1MET] + N=C(N)NC(=N)NCCc1ccccc1 [Phenformin] (partner 250 µM) displayed a relative viability of 0.646.
